Test results published in patent US11851431B2, “Tricyclic Janus kinase 1 inhibitors, and compositions and methods thereof” (LYNK PHARMACEUTICALS CO. LTD., priority 2018, dated 2023).

Experiments:
JAK1 = target: T1, JAK1 (Homo sapiens, UniProt P23458); assay: JAK biochemical microfluidic assay (Caliper EZ Reader), JAK1; details: 1 mM ATP; head prints (5 nM)
T1 construct: purchased Carna Biosciences
Procedure: (§1) JAK activity was determined in the reaction buffer 50 mM HEPES, 0.01% Brij35, 10 mM MgCl2, 2 mM DTT by a microfluidic assay. The phosphorylation of a FAM labeled peptide substrate was monitored in the Caliper EZ Reader II (Perkin Elmer). The assay condition for each batch of enzyme (Carna Biosciences) was optimized to obtain 10% conversion rate of peptide substrate.
(§2) The test compounds were dissolved in DMSO to a stock concentration of 10 mM. Three-fold serially diluted compounds with top concentration of 5 μM were pre-incubated with JAK1, JAK2 or TYK2 for 10 min at ambient temperature. The final DMSO concentration of assay mixture was 1%. […] The reaction was stopped by adding 50 mM EDTA.
(§3) The percent inhibition was calculated by the following formula. % Inhibition=(Conversionmax−Conversionsample)/(Conversionmax−Conversionmin)*100 Conversionmax means the conversion rate in the positive well without addition of compound • […] means the conversion rate in the well without addition of enzyme • Conversionsample means the conversion rate of test compounds
(§4) The dose-response (percent inhibition) curve was plotted and IC50 values were determined by GraphPad software.

JAK2 = target: T2, JAK2 (Homo sapiens, UniProt O60674); assay: JAK biochemical microfluidic assay (Caliper EZ Reader), JAK2; details: 1 mM ATP; head prints (0.25 nM)
T2 construct: purchased Carna Biosciences
T2 sequence (O60674 whole entry): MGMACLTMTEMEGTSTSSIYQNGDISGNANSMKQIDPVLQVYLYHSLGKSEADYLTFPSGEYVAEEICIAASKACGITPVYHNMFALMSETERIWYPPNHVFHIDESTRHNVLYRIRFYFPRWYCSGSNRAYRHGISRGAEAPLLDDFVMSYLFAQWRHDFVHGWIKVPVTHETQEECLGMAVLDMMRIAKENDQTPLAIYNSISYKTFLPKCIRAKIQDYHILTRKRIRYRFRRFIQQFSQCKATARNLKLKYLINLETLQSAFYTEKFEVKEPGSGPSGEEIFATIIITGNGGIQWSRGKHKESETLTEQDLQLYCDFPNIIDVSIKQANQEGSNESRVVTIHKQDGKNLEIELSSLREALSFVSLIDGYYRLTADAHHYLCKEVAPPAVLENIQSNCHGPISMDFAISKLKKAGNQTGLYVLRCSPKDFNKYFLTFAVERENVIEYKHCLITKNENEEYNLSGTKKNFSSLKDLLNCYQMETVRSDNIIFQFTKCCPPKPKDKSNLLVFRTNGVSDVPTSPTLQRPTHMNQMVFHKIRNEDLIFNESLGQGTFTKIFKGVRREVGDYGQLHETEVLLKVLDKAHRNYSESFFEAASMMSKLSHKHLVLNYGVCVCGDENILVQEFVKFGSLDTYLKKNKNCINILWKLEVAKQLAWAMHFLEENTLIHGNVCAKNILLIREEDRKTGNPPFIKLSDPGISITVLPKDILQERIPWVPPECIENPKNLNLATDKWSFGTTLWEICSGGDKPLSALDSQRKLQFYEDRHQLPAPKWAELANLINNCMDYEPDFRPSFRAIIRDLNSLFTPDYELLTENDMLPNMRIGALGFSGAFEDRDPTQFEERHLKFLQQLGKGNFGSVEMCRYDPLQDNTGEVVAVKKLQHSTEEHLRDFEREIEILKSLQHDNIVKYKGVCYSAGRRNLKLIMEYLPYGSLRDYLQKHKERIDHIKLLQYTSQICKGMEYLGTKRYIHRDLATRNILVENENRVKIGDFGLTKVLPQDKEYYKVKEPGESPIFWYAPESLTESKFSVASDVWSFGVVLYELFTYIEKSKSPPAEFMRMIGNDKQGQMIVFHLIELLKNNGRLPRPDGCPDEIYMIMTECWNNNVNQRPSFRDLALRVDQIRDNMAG
Procedure: as §1, §2, §3, §4

T1 sequence (P23458 whole entry): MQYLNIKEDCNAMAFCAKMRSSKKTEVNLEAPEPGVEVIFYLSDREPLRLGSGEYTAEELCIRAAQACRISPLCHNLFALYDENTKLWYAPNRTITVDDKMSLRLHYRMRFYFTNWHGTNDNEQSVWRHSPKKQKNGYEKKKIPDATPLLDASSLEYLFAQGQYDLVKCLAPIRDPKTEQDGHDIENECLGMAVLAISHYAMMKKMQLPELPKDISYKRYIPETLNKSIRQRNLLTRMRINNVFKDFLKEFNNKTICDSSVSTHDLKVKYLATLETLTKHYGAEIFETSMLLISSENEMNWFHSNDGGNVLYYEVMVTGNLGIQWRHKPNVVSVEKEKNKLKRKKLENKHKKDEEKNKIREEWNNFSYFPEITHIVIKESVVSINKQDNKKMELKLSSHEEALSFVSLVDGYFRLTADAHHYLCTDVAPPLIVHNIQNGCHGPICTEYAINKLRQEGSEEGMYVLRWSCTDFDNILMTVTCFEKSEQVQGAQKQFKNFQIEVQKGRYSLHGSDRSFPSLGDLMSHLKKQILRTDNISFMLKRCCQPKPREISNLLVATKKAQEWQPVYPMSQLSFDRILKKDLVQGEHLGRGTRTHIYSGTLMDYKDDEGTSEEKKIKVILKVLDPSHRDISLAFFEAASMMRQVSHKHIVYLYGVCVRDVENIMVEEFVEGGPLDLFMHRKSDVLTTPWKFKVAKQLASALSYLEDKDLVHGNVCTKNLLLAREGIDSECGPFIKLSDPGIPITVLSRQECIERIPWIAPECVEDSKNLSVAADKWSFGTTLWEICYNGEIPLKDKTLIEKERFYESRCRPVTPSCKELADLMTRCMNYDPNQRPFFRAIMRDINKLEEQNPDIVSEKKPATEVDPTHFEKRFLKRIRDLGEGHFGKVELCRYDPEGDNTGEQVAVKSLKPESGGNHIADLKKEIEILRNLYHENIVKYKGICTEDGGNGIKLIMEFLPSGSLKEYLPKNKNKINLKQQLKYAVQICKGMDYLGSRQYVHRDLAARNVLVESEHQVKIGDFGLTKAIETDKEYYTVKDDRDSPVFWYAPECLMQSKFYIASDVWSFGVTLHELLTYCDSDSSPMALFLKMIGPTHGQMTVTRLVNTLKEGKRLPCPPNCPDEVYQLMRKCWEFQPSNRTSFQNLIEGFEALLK

Row | SMILES | IC50 (JAK1) [nM] | IC50 (JAK2) [nM]
1 | CCCS(=O)(=O)NC12CC(n3c([C@@H](C)O)nc4cnc5[nH]ccc5c43)(C1)C2 [Example 47, (R)—N-(3-(2-(1-hydroxyethyl)imidazo[4,5-d]pyrrolo[2,3-b]pyridin-1(6H)-yl)bicyclo[1.1.1]pentan-1-yl)propane-1-sulfonamide] | 48.7 | 1110
2 | COCCCS(=O)(=O)NC12CC(n3cnc4cnc5[nH]ccc5c43)(C1)C2 [Example 26, N-(3-(Imidazo[4,5-d]pyrrolo[2,3-b]pyridin-1(6H)-yl)bicyclo[1.1.1]pentan-1-yl)-3-methoxypropane-1-sulfonamide] | 26.2 | 849
3 | COC1CN(C(=O)NC23CC(n4cnc5cnc6[nH]ccc6c54)(C2)C3)C1 [Example 38, N-(3-(Imidazo[4,5-d]pyrrolo[2,3-b]pyridin-1(6H)-yl)bicyclo[1.1.1]pentan-1-yl)-3-methoxyazetidine-1-carboxamide] | 389 | 3300
4 | CC(C)(C#N)COC(=O)NC12CC(n3cnc4cnc5[nH]ccc5c43)(C1)C2 [Example 42, 2-Cyano-2-methylpropyl (3-(imidazo[4,5-d]pyrrolo[2,3-b]pyridin-1(6H)-yl)bicyclo[1.1.1]pentan-1-yl)carbamate] | 142 | 965
5 | CNS(=O)(=O)C[C@H]1C[C@@H](n2cnc3cnc4[nH]ccc4c32)C1 [Example 44, 1-(Cis-3-(imidazo[4,5-d]pyrrolo[2,3-b]pyridin-1(6H)-yl)cyclobutyl)-N-methylmethanesulfonamide] | 159 | 604
6 | O=C(NC12CC(n3cnc4cnc5[nH]ccc5c43)(C1)C2)N1CC(F)(F)C1 [Example 37, 3,3-Difluoro-N-(3-(imidazo[4,5-d]pyrrolo[2,3-b]pyridin-1(6H)-yl)bicyclo[1.1.1]pentan-1-yl)azetidine-1-carboxamide] | 101 | 678
7 | CCCS(=O)(=O)NC12CC(N(C)c3ncnc4[nH]ccc34)(C1)C2 [Example 49, N-(3-(Methyl(7H-pyrrolo[2,3-d]pyrimidin-4-yl)amino)bicyclo[1.1.1]pentan-1-yl)propane-1-sulfonamide] | > 5000 | > 5000
8 | N#CCC(=O)NC12CC(n3cnc4cnc5[nH]ccc5c43)(C1)C2 [Example 11, 2-Cyano-N-(3-(imidazo[4,5-d]pyrrolo[2,3-b]pyridin-1(6H)-yl)bicyclo[1.1.1]pentan-1-yl)acetamide] | 11.7 | 166
9 | O=C(NC12CC(n3cnc4cnc5[nH]ccc5c43)(C1)C2)C1CC1 [Example 12, N-(3-(Imidazo[4,5-d]pyrrolo[2,3-b]pyridin-1(6H)-yl)bicyclo[1.1.1]pentan-1-yl)cyclopropanecarboxamide] | 35.5 | –
10 | CCCNC(=O)NC12CC(n3cnc4cnc5[nH]ccc5c43)(C1)C2 [Example 34, 1-(3-(Imidazo[4,5-d]pyrrolo[2,3-b]pyridin-1(6H)-yl)bicyclo[1.1.1]pentan-1-yl)-3-propylurea] | 25.4 | 199
11 | CN(C)S(=O)(=O)NC12CC(n3cnc4cnc5[nH]ccc5c43)(C1)C2 [Example 24, N-(3-(imidazo[4,5-d]pyrrolo[2,3-b]pyridin-1(6H)-yl)bicyclo[1.1.1]pentan-1-yl)-N′-dimethyl-1-sulfonamide] | 23 | –
12 | O=C(NC12CC(n3cnc4cnc5[nH]ccc5c43)(C1)C2)c1ccc(Cl)cc1 [Example 15, 4-Chloro-N-(3-(imidazo[4,5-d]pyrrolo[2,3-b]pyridin-1(6H)-yl)bicyclo[1.1.1]pentan-1-yl)benzamide] | 82.6 | –
13 | CC(C)CC(=O)NC12CC(n3cnc4cnc5[nH]ccc5c43)(C1)C2 [Example 8, N-(3-(Imidazo[4,5-d]pyrrolo[2,3-b]pyridin-1(6H)-yl)bicyclo[1.1.1]pentan-1-yl)-3-methylbutanamide] | 47.4 | 328
14 | COC1CN(S(=O)(=O)NC23CC(n4cnc5cnc6[nH]ccc6c54)(C2)C3)C1 [Example 21, N-(3-(imidazo[4,5-d]pyrrolo[2,3-b]pyridin-1(6H)-yl)bicyclo[1.1.1]pentan-1-yl)-3-methoxyazetidine-1-sulfonamide] | 14.2 | 326
15 | CCN(C)S(=O)(=O)NC12CC(n3cnc4cnc5[nH]ccc5c43)(C1)C2 [Example 25, N-(3-(imidazo[4,5-d]pyrrolo[2,3-b]pyridin-1(6H)-yl)bicyclo[1.1.1]pentan-1-yl)-N′-methyl-N′-ethyl-1-sulfonamide] | 26.1 | –
16 | CC(C)(C#N)CNC(=O)NC12CC(n3cnc4cnc5[nH]ccc5c43)(C1)C2 [Example 40, 1-(2-Cyano-2-methylpropyl)-3-(3-(imidazo[4,5-d]pyrrolo[2,3-b]pyridin-1(6H)-yl)bicyclo[1.1.1]pentan-1-yl)urea] | 49.4 | 355

Row | SMILES | IC50 (JAK1) [nM] | IC50 (JAK2) [nM]
17 | N#CCCNC(=O)NC12CC(n3cnc4cnc5[nH]ccc5c43)(C1)C2 [Example 43, 1-(2-Cyanoethyl)-3-(3-(imidazo[4,5-d]pyrrolo[2,3-b]pyridin-1(6H)-yl)bicyclo[1.1.1]pentan-1-yl)urea] | 15.6 | 223
18 | N#CC1CN(S(=O)(=O)C[C@H]2C[C@@H](n3cnc4cnc5[nH]ccc5c43)C2)C1 [Example 45, 1-(((Cis-3-(imidazo[4,5-d]pyrrolo[2,3-b]pyridin-1(6H)-yl)cyclobutyl)methyl)sulfonyl) azetidine-3-carbonitrile] | 15.7 | 170
19 | CCS(=O)(=O)NC12CC(n3cnc4cnc5[nH]ccc5c43)(C1)C2 [Example 27, N-(3-(imidazo[4,5-d]pyrrolo[2,3-b]pyridin-1(6H)-yl)bicyclo[1.1.1]pentan-1-yl)ethanesulfonamide] | 20.2 | 291
20 | Cn1cc(S(=O)(=O)NC23CC(n4cnc5cnc6[nH]ccc6c54)(C2)C3)cn1 [Example 29, N-(3-(imidazo[4,5-d]pyrrolo[2,3-b]pyridin-1(6H)-yl)bicyclo[1.1.1]pentan-1-yl)-1-methyl-1H-pyrazole-4-sulfonamide] | 90.5 | 992
21 | CC(C)CNC(=O)NC12CC(n3cnc4cnc5[nH]ccc5c43)(C1)C2 [Example 36, 1-(3-(Imidazo[4,5-d]pyrrolo[2,3-b]pyridin-1(6H)-yl)bicyclo[1.1.1]pentan-1-yl)-3-isobutylurea] | 49.5 | –
22 | NC12CC(n3cnc4cnc5[nH]ccc5c43)(C1)C2 [Example 1j, 3-(Imidazo[4,5-d]pyrrolo[2,3-b]pyridin-1(6H)-yl)bicyclo[1.1.1]pentan-1-amine 2,2,2-trifluoroacetate] | 278 | –
23 | N#CC1CCN(C(=O)NC23CC(n4cnc5cnc6[nH]ccc6c54)(C2)C3)C1 (centres unmarked) [Example 39, 3-Cyano-N-(3-(imidazo[4,5-d]pyrrolo[2,3-b]pyridin-1(6H)-yl)bicyclo[1.1.1]pentan-1-yl)pyrrolidine-1-carboxamide] | 68.7 | 526
24 | CC(C)COC(=O)NC12CC(n3cnc4cnc5[nH]ccc5c43)(C1)C2 [Example 10, Isobutyl (3-(imidazo[4,5-d]pyrrolo[2,3-b]pyridin-1(6H)-yl)bicyclo[1.1.1]pentan-1-yl)carbamate] | 165 | 868
25 | O=C(NC1CC1)NC12CC(n3cnc4cnc5[nH]ccc5c43)(C1)C2 [Example 35, 1-Cyclopropyl-3-(3-(imidazo[4,5-d]pyrrolo[2,3-b]pyridin-1(6H)-yl)bicyclo[1.1.1]pentan-1-yl)urea] | 235 | –
26 | CC(C)S(=O)(=O)NC12CC(n3cnc4cnc5[nH]ccc5c43)(C1)C2 [Example 30, N-(3-(imidazo[4,5-d]pyrrolo[2,3-b]pyridin-1(6H)-yl)bicyclo[1.1.1]pentan-1-yl)propane-2-sulfonamide] | 25.5 | 226
27 | CCCC(=O)NC12CC(n3cnc4cnc5[nH]ccc5c43)(C1)C2 [Example 9, N-(3-(imidazo[4,5-d]pyrrolo[2,3-b]pyridin-1(6H)-yl)bicyclo[1.1.1]pentan-1-yl)butyramide] | 58.7 | 441
28 | N[C@H]1C[C@@H](n2cnc3cnc4[nH]ccc4c32)C1 [Example 2e, Cis-3-(imidazo[4,5-d]pyrrolo[2,3-b]pyridin-1(6H)-yl)cyclobutanamine 2,2,2-trifluoroacetate] | 2570 | > 5000
29 | CC(C)OC(=O)NC12CC(n3cnc4cnc5[nH]ccc5c43)(C1)C2 [Example 16, Isopropyl (3-(imidazo[4,5-d]pyrrolo[2,3-b]pyridin-1(6H)-yl)bicyclo[1.1.1]pentan-1-yl)carbamate] | 64 | –
30 | CCCS(=O)(=O)NC12CC(n3c(C)nc4cnc5[nH]ccc5c43)(C1)C2 [Example 48, N-(3-(2-methylimidazo[4,5-d]pyrrolo[2,3-b]pyridin-1(6H)-yl)bicyclo[1.1.1]pentan-1-yl)propane-1-sulfonamide] | 13 | 244
31 | O=C(NC12CC(n3cnc4cnc5[nH]ccc5c43)(C1)C2)OCC1CC1 [Example 19, Cyclopropylmethyl (3-(imidazo[4,5-d]pyrrolo[2,3-b]pyridin-1(6H)-yl)bicyclo[1.1.1]pentan-1-yl)carbamate] | 51.3 | 578
32 | N#CCS(=O)(=O)NC12CC(n3cnc4cnc5[nH]ccc5c43)(C1)C2 [Example 33, 1-Cyano-N-(3-(imidazo[4,5-d]pyrrolo[2,3-b]pyridin-1(6H)-yl)bicyclo[1.1.1]pentan-1-yl)methanesulfonamide] | 14.4 | 146
